Measured values published in PubChem BioAssay (NCI).
Values joined by “and” are separate entries in the source; they are usually repeats but may differ in a detail not shown here. Identical values can stand only once.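 Assay format: 96-well plates, 48-hour exposure. GI50 = concentration required for 50% inhibition of growth. Definition used: TGI = concentration required for complete inhibition of growth.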

Legend:
Assay in all cases: NCI-60 cell line screen, 48 h
SR leukemia = tested on: SR leukemia
TK-10 renal = tested on: TK-10 renal
M14 melanoma = tested on: M14 melanoma
SN12C renal = tested on: SN12C renal
KM12 colon = tested on: KM12 colon
HT29 colon = tested on: HT29 colon
NCI-H226 lung = tested on: NCI-H226 lung
DU-145 prostate = tested on: DU-145 prostate
EKVX NSCLC = tested on: EKVX NSCLC
SK-MEL-2 melanoma = tested on: SK-MEL-2 melanoma

Structure (SMILES)	GI50 (SR leukemia)	TGI (SR leukemia)	GI50 (TK-10 renal)	TGI (TK-10 renal)	GI50 (M14 melanoma)	TGI (M14 melanoma)	GI50 (SN12C renal)	TGI (SN12C renal)	GI50 (KM12 colon)	TGI (KM12 colon)	GI50 (HT29 colon)	TGI (HT29 colon)	GI50 (NCI-H226 lung)	TGI (NCI-H226 lung)	GI50 (DU-145 prostate)	TGI (DU-145 prostate)	GI50 (EKVX NSCLC)	TGI (EKVX NSCLC)	GI50 (SK-MEL-2 melanoma)	TGI (SK-MEL-2 melanoma)
CCCCCCCCCCC/C=C\C[C@H](O)C/C=C1/C(=O)C=C[C@@H]1C/C=C\CCCC(=O)OC	720 nM	3.97 µM	1.95 µM	9.78 µM	1040 nM	4.32 µM	841 nM	2.29 µM	852 nM	2.45 µM	1030 nM	2.85 µM	732 nM	1.76 µM	1350 nM	5.57 µM	0.766 µM	2.04 µM	1460 nM	5.67 µM
NS(=O)(=O)c1ccc(NCc2cnc3ccccc3n2)cc1	–	> 100 µM	–	> 100 µM	–	> 100 µM	–	> 100 µM	–	> 100 µM	–	> 100 µM	–	> 100 µM	–	> 100 µM	–	> 100 µM	–	> 100 µM
O=c1c2c(c3ccccc3n1-c1ccccc1)NC(=S)NC2c1ccc(Cl)cc1 (configuration not stated)	4760 nM	> 100 µM	9.62 µM	> 100 µM	3190 nM	16.1 µM	3830 nM	> 100 µM	1880 nM	11.7 µM	4690 nM	> 100 µM	5360 nM	37.4 µM	3000 nM	28.5 µM	2.91 µM	94.4 µM	3620 nM	32.4 µM
Cc1cc2nc3ccc(=[N+](C)C)cc-3sc2cc1N	419 nM and 544 nM	–	2.65 µM and 2.75 µM	7.01 µM and 36.8 µM and 8.19 µM	368 nM and 703 nM	1.38 µM and 9.09 µM and 2.28 µM	821 nM and 1150 nM	3.7 µM and 10.6 µM and 2.52 µM	401 nM and 771 nM	2.28 µM and 18.1 µM and 2.95 µM	2090 nM and 2870 nM	5.45 µM and 22.8 µM and 9.44 µM	2110 nM and 1820 nM	9.05 µM and 30.9 µM and 7.69 µM	1190 nM and 1690 nM	–	2.12 µM and 1.72 µM	9.09 µM and 17.2 µM and 8.02 µM	1310 nM and 2260 nM	5.62 µM and 17 µM and 8.27 µM
Cc1ccc(/C=C/C(=N/N=C(N)N)c2ccccc2)cc1	897 nM	6.32 µM	3.89 µM	12 µM	1670 nM	3.95 µM	4500 nM	16.9 µM	2970 nM	13.2 µM	2530 nM	7.59 µM	3090 nM	12.6 µM	3330 nM	10.8 µM	10.1 µM	28 µM	2750 nM	8.04 µM
COc1cc(/C=C2\Oc3cc(OCCCN4CCCC4)ccc3C2=O)cc(OC)c1	1820 nM	5.04 µM	11.4 µM	25.4 µM	1830 nM	3.75 µM	10300 nM	22 µM	4820 nM	17.7 µM	2800 nM	8.69 µM	13800 nM	27 µM	3680 nM	12.8 µM	9.6 µM	21.9 µM	14700 nM	30.2 µM
O=S1(=O)NC2CCC3NS(=O)(=O)NC4CCC(N1)N4S(=O)(=O)N23 (configuration not stated)	–	> 100 µM	–	> 100 µM	–	> 100 µM	–	> 100 µM	–	> 100 µM	–	> 100 µM	–	> 100 µM	–	> 100 µM	–	> 100 µM	–	> 100 µM
C[C@]12CC[C@H]3[C@@H](CCC4=CC(=O)CC[C@@]43C)[C@@H]1CC[C@@H]2C(=O)COS(=O)(=O)c1ccc(Br)cc1	–	3.12 µM	–	34.5 µM	–	23.8 µM	–	34.3 µM	–	44.8 µM	–	30.3 µM	–	39.3 µM	–	34.4 µM	–	21.3 µM	–	22.3 µM
CCC(C)[C@H](NC(=O)NC(=O)NC(=O)CI)C(=O)OC (some centres not stated)	1370 nM	4.15 µM	2.96 µM	11.8 µM	2470 nM	6.8 µM	4280 nM	20.4 µM	16600 nM	33.2 µM	1920 nM	3.59 µM	3840 nM	19.1 µM	15200 nM	28.4 µM	16.7 µM	30.6 µM	14200 nM	27.3 µM
COc1ccc(CNC(C)C(=O)O)cc1 (configuration not stated)	–	> 100 µM	–	> 100 µM	–	> 100 µM	–	> 100 µM	–	> 100 µM	–	> 100 µM	–	> 100 µM	–	> 100 µM	–	> 100 µM	–	> 100 µM
c1ccc(Nc2nc(-c3ccccn3)cs2)nc1	308 nM	7.95 µM	0.573 µM	> 100 µM	258 nM	–	873 nM	> 100 µM	381 nM	15.9 µM	603 nM	21.1 µM	1000 nM	> 63.1 µM	650 nM	> 100 µM	0.507 µM	> 56.9 µM	442 nM	30.4 µM
CCCCCCC/C=C/[C@H]1O[C@]2(O)C(=O)C=C3C[C@@H](O[C@@H]4O[C@H](CO)[C@@H](O)C(O)[C@@H]4O)C[C@@H]3[C@H]2C=C1C (some centres not stated)	717 nM	2.85 µM	5.51 µM	11 µM	1580 nM	6.35 µM	2800 nM	10.7 µM	3710 nM	8.65 µM	4130 nM	10 µM	4520 nM	13.7 µM	3520 nM	7.44 µM	4.82 µM	11 µM	3460 nM	9.34 µM
CC1(C)CCCC(C)(C2CCC3(C)C2C(O)CC2C4(C)CCC(O)C(C)(C)C4C(O)CC23C)O1 (configuration not stated)	–	86.1 µM	–	25.4 µM	–	31.7 µM	–	30.8 µM	–	24.7 µM	–	14 µM	–	40.1 µM	–	32.4 µM	–	32.5 µM	–	28 µM
O=C(c1ccco1)c1c(C(F)(F)F)nc2ccc(C(F)(F)F)cc2[n+]1[O-]	> 91700 nM	> 100 µM	23.9 µM	50 µM	35800 nM	> 100 µM	43400 nM	> 100 µM	68000 nM	> 100 µM	> 61400 nM	> 100 µM	32100 nM	> 100 µM	27300 nM	> 75.8 µM	19.9 µM	> 69.6 µM	> 64600 nM	> 100 µM
CO[C@]12C=C/C(=C(/C(=O)OCc3cccnc3)C(=O)CCCCCCCC[C@@]3(OC)C=C/C(=C(/C(=O)OCc4cccnc4)C(=O)CCCCCCCC1)O3)O2	1120 nM	> 50 µM	2.93 µM	18.9 µM	1200 nM	3.79 µM	1840 nM	34.2 µM	1030 nM	2.38 µM	1700 nM	> 50 µM	1020 nM	1.94 µM	1760 nM	12.7 µM	1.97 µM	> 50 µM	1340 nM	4 µM
Clc1cc2c(nn1)Nc1ccccc1S2	> 100000 nM	> 100 µM	> 100 µM	> 100 µM	> 100000 nM	> 100 µM	> 100000 nM	> 100 µM	> 100000 nM	> 100 µM	> 100000 nM	> 100 µM	> 100000 nM	> 100 µM	> 100000 nM	> 100 µM	35.6 µM	> 100 µM	> 100000 nM	> 100 µM
CC(C)=CCC1=C(OCC(=O)O)C(=O)c2ccccc2C1=O	–	> 100 µM	–	> 100 µM	–	> 100 µM	–	74.8 µM	–	> 100 µM	–	> 100 µM	–	90.1 µM	–	> 100 µM	–	> 100 µM	–	84.2 µM
COc1cc2oc(-c3ccc(O)cc3O)c(CC=C(C)C)c(=O)c2c(O)c1/C=C/C(C)C	–	4.44 µM	–	14.1 µM	–	3.56 µM	–	3.35 µM	–	7.51 µM	–	5.74 µM	–	9.98 µM	–	11 µM	–	15.3 µM	–	17.9 µM
NC(=S)N/N=C/c1ccc(N)cn1	–	> 10 µM	–	> 10 µM	–	> 7.38 µM	–	> 10 µM	–	> 10 µM	–	> 10 µM	–	> 10 µM	–	7.76 µM	–	> 10 µM	–	> 10 µM
C=C1CCC2C3(C)COC(c4c(OC)cccc4OC)OC3CCC2(C)C1C/C=C1/C(=O)OCC1O (configuration not stated)	1620 nM	4.99 µM	4.03 µM	12.5 µM	2960 nM	9.01 µM	2330 nM	8.27 µM	2210 nM	4.99 µM	2510 nM	6.62 µM	2420 nM	5.81 µM	2960 nM	7.87 µM	8.47 µM	27.3 µM	7180 nM	21.9 µM
CC(=O)c1ccc(Nc2nc(Nc3ccc(F)cc3)nc(Nc3ccc(F)cc3)n2)cc1	4240 nM	> 100 µM	15.6 µM	42.2 µM	6520 nM	> 100 µM	23600 nM	> 100 µM	8670 nM	97.9 µM	5790 nM	> 100 µM	20700 nM	> 100 µM	14800 nM	55.7 µM	12.3 µM	57.8 µM	10100 nM	40.3 µM
CNc1cc2nc3cc(NC)c(C)cc3cc2cc1C	530 nM	> 100 µM	3.55 µM	16.2 µM	2240 nM	14.1 µM	573 nM	10.5 µM	792 nM	2.28 µM	300 nM	1.1 µM	810 nM	18.8 µM	861 nM	11.5 µM	1.04 µM	8.48 µM	6000 nM	26.2 µM
O=C1C=CC(=Nc2ccccc2)c2ccccc21	–	37.1 µM	–	31.6 µM	–	18.6 µM	–	25.7 µM	–	25.6 µM	–	34.3 µM	–	28.8 µM	–	3.14 µM	–	12.9 µM	–	8.15 µM
O=C1C(Nc2ccc(Br)cc2)=C(I)C(=O)c2ncccc21	314 nM	2.42 µM	3.54 µM	9.74 µM	815 nM	1.93 µM	828 nM	1.74 µM	2050 nM	8.41 µM	1830 nM	9.19 µM	988 nM	2.13 µM	1140 nM	4.26 µM	3.08 µM	9.52 µM	1270 nM	4.77 µM
Nc1ccccc1NC(=O)c1ccc(CN2CCC/C(=C\c3ccccn3)C2=O)cc1	470 nM	> 100 µM	0.107 µM	4.18 µM	1050 nM	> 100 µM	2590 nM	> 100 µM	1530 nM	> 100 µM	443 nM	> 100 µM	2620 nM	9.59 µM	3150 nM	> 100 µM	3.75 µM	> 100 µM	1570 nM	11.8 µM
CC[C@@H](C(=O)[C@H](C)[C@H](O)[C@@H](C)[C@H]1O[C@H]([C@@H](CC)C(=O)O)CC[C@H]1C)C1O[C@]2(C=C[C@@H](O)[C@]3(CC[C@@](C)([C@H]4CC[C@](O)(CC)[C@H](C)O4)O3)O2)[C@H](C)C[C@@H]1C (some centres not stated)	82.7 nM	5.73 µM	1.68 µM	83.1 µM	1130 nM	2.89 µM	159 nM	16.4 µM	723 nM	12.9 µM	357 nM	30.2 µM	598 nM	5.83 µM	1060 nM	29.3 µM	0.362 µM	17.5 µM	1270 nM	4.5 µM
